The values that follow come from ChEMBL document CHEMBL1201862, “PubChem BioAssay data set” (2004).

SMILES strings stand for the structures.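 Protocol summary: plate cells (96-well), add compound at 5 concentrations, incubate 48 h, interpolate endpoints linearly. GI50 = concentration required for 50% inhibition of growth.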 Activity calls are given as the source filed them. Rule as the data show it: active = GI50 up to about 1.1 µM and inactive = higher. Bounds are passed on as bounds.

Among the test systems are UACC-257; SNB-19; NCI-H522; NCI/ADR-RES; T47D; HT-29; U-251; MOLT-4; A549; SR; OVCAR-4; LOX IMVI; TK-10; EKVX; OVCAR-5; K562; CAKI-1; Hs-578T; HCT-15.
Holding throughout (test): growth of human tumour cells (NCI), 48 h

`CC1CCN(CC(=O)N2c3ccccc3Sc3cc4ccccc4cc32)CC1`: the GI50 in the assay with UACC-257 was > 100 µM (inactive); in the assay with SNB-19 it was > 100 µM (inactive); in the assay with NCI-H522, > 100 µM (inactive); with NCI/ADR-RES it was > 100 µM (inactive); in the assay with T47D it was > 100 µM (inactive); in the assay with HT-29, 48 µM (inactive). Besides, the GI50 with U-251 was > 100 µM (inactive); in the assay on MOLT-4, 36.4 µM (inactive); in the assay with A549 it was > 100 µM (inactive); in the assay on SR it was 54.6 µM (inactive); with OVCAR-4 it was > 100 µM (inactive); in the assay on LOX IMVI, > 100 µM (inactive). In addition, the GI50 in the assay with TK-10, in the assay on EKVX, in the assay with OVCAR-5, in the assay with K562, in the assay with CAKI-1 and with Hs-578T was > 100 µM (inactive) throughout. For the same compound, the GI50 with HCT-15 is greater than 100 µM.
Regarding `CCN(C(=O)/C=C/c1ccco1)c1ccccc1`, the GI50 in the assay with UACC-257, with SNB-19, in the assay on NCI-H522, in the assay on NCI/ADR-RES, with T47D and with HT-29 was > 100 µM (inactive) throughout. The GI50 in the assay with U-251 was > 100 µM (inactive); in the assay with MOLT-4 it was 53.8 µM (inactive); in the assay with A549, > 100 µM (inactive); with SR it was 46.2 µM (inactive); in the assay on OVCAR-4 it was > 100 µM (inactive); in the assay with LOX IMVI, > 100 µM (inactive). Further, the GI50 in the assay on TK-10 was > 100 µM (inactive); in the assay with EKVX it was > 100 µM (inactive); in the assay with OVCAR-5, > 100 µM (inactive); in the assay with K562, 46.2 µM (inactive); with CAKI-1 it was > 100 µM (inactive); in the assay on Hs-578T, > 100 µM (inactive). This compound also showed a GI50 in the assay with HCT-15 greater than 100 µM.
For `C=C1C(=O)O[C@@H]2CC(CO)=C([C@@H](C)CCCO)[C@@H](OC(=O)/C(C)=C\C)[C@H]12`, the GI50 with UACC-257 was 15.6 µM (inactive); with SNB-19, 20.1 µM (inactive); with NCI-H522, 2.62 µM (inactive); in the assay with NCI/ADR-RES it was 20.2 µM (inactive); with T47D, 10.4 µM (inactive); in the assay on HT-29, 12.9 µM (inactive). For the same compound, the GI50 in the assay on U-251 is 15 µM (inactive); with MOLT-4 it was 10.8 µM (inactive); with A549 it was 21.6 µM (inactive); in the assay on SR, 1.88 µM (inactive); in the assay on OVCAR-4 it was 22.2 µM (inactive); in the assay on LOX IMVI, 8.39 µM (inactive). Also, the GI50 with TK-10 was 18.8 µM (inactive); in the assay on EKVX, 13.7 µM (inactive); in the assay on OVCAR-5, 28.5 µM (inactive); with K562, 5.22 µM (inactive); in the assay on CAKI-1, 22.1 µM (inactive); in the assay on Hs-578T, 21.1 µM (inactive). This compound gave a GI50 in the assay with HCT-15 of 13.7 µM.
On to `CN(C)CCCN1c2ccccc2Sc2cnccc21`, for which the GI50 in the assay with UACC-257 is 19.7 µM (inactive); in the assay on SNB-19, > 100 µM (inactive); in the assay on NCI-H522 it was 65 µM (inactive); in the assay on NCI/ADR-RES it was > 100 µM (inactive); with T47D, > 100 µM (inactive); in the assay with HT-29 it was 58.6 µM (inactive). The GI50 in the assay with U-251 was > 100 µM (inactive); in the assay on MOLT-4, 60 µM (inactive); in the assay with A549, > 100 µM (inactive); in the assay with SR, 34.2 µM (inactive); in the assay on OVCAR-4, 93.8 µM (inactive); with LOX IMVI, 65.2 µM (inactive). The GI50 in the assay on TK-10 was 42.4 µM (inactive); with EKVX, > 100 µM (inactive); with OVCAR-5, > 100 µM (inactive); in the assay on K562 it was 68.5 µM (inactive); in the assay with CAKI-1 it was 63.1 µM (inactive); in the assay on Hs-578T, > 100 µM (inactive). In the assay with HCT-15, the GI50 was greater than 100 µM.
As for `FC(F)(F)c1nc2nc(Cl)c(Cl)nc2n1CCCN1CCOCC1`, the GI50 in the assay with UACC-257 is 24 µM (inactive); in the assay on SNB-19 it was 51.4 µM (inactive); in the assay with NCI-H522 it was 29.4 µM (inactive); in the assay with NCI/ADR-RES it was > 100 µM (inactive); in the assay with T47D, 47 µM (inactive); in the assay with HT-29 it was 66.8 µM (inactive). Moreover, the GI50 in the assay on U-251 was 65.9 µM (inactive); in the assay with MOLT-4, 13 µM (inactive); with A549, > 100 µM (inactive); in the assay with SR, 0.489 µM (active); in the assay on OVCAR-4 it was 55.5 µM (inactive); in the assay on LOX IMVI it was 30.4 µM (inactive). The GI50 in the assay on TK-10 was > 100 µM (inactive); with EKVX, 23.4 µM (inactive); in the assay on OVCAR-5, > 100 µM (inactive); with K562, 14.2 µM (inactive); in the assay with CAKI-1 it was 3.71 µM (inactive); with Hs-578T it was 33.7 µM (inactive). In the assay on HCT-15, this compound had a GI50 of 29 µM.
Consider `O=C(NNS(=O)(=O)c1ccc(Br)cc1)c1ccc(Cl)cc1NC(=O)C12CC3CC(CC(C3)C1)C2`, for which the GI50 with UACC-257 was 13.5 µM (inactive); with SNB-19, 15.4 µM (inactive); in the assay on NCI-H522 it was 12.4 µM (inactive); in the assay with NCI/ADR-RES, 14.3 µM (inactive); with T47D it was 15.2 µM (inactive); in the assay with HT-29, 11.8 µM (inactive). Also, the GI50 in the assay on U-251 was 10.8 µM (inactive); in the assay on MOLT-4 it was 6.62 µM (inactive); with A549 it was 8.15 µM (inactive); with SR it was 12.4 µM (inactive); in the assay with OVCAR-4, 10.6 µM (inactive); in the assay with LOX IMVI it was 14.1 µM (inactive). Besides, the GI50 was 12.5 µM (inactive) in the assay with TK-10; 11.3 µM (inactive) in the assay on EKVX; 18.2 µM (inactive) with OVCAR-5; 6.34 µM (inactive) in the assay on K562; 17 µM (inactive) with CAKI-1; 17.4 µM (inactive) with Hs-578T. Besides, the GI50 with HCT-15 is 15.6 µM.
In the case of `Cc1cc(/N=C/c2ccc(C#N)cc2)n(-c2ccccc2)n1`, the GI50 with UACC-257 was > 100 µM (inactive); with SNB-19, 65.8 µM (inactive); in the assay on NCI-H522 it was 72.4 µM (inactive); with NCI/ADR-RES it was 65.8 µM (inactive); with T47D it was 48.9 µM (inactive); in the assay on HT-29, 47.8 µM (inactive). The GI50 with U-251 is 71.6 µM (inactive); with MOLT-4, 42.6 µM (inactive); in the assay on A549, 64.9 µM (inactive); in the assay on SR, 35.5 µM (inactive); in the assay with OVCAR-4, > 100 µM (inactive); with LOX IMVI, 63.4 µM (inactive). For the same compound, the GI50 is > 100 µM (inactive) in the assay on TK-10; 94.8 µM (inactive) with EKVX; > 100 µM (inactive) in the assay on OVCAR-5; 26.5 µM (inactive) in the assay on K562; > 100 µM (inactive) with CAKI-1; 44.2 µM (inactive) in the assay on Hs-578T. Further, in the assay on HCT-15, the GI50 was 50.8 µM.
For the compound `COc1ccc(-c2cc3ccccc3oc2=O)cc1OC`, the GI50 is > 100 µM (inactive) in the assay on UACC-257; 90.6 µM (inactive) in the assay on SNB-19; > 100 µM (inactive) in the assay with NCI-H522; > 100 µM (inactive) in the assay with NCI/ADR-RES; > 100 µM (inactive) with T47D; > 100 µM (inactive) in the assay with HT-29. The GI50 with U-251, with MOLT-4, in the assay on A549, in the assay on SR, in the assay on OVCAR-4 and with LOX IMVI was > 100 µM (inactive) throughout. Also, the GI50 in the assay on TK-10, with EKVX, in the assay on OVCAR-5, with K562, with CAKI-1 and in the assay with Hs-578T was > 100 µM (inactive) each time. The same compound registered a GI50 with HCT-15 greater than 100 µM.
